# Measurements published in patent US11672795B2, “Compositions and methods for treating pulmonary vascular disease” (UNIVERSITY OF PITTSBURGH-OF THE COMMONWEALTH SYSTEM OF …, priority 2016, dated 2023).
# Read-outs that look alike come from different tables or passages of the source.
# How the values were obtained:
# Type in all cases: in vivo, rat
# [1] = system: monocrotaline-exposed rats; test: Atomic force microscopy of pulmonary arteriolar stiffness in monocrotaline-exposed rats
# Method: Rat lungs were inflated with 0.025 g of OCT by g of body weight, frozen on liquid nitrogen vapor and store at −80° C. Rat lung slices (10 μm thickness) were cut out from their glass slide and the fragment of glass containing the sample was glued on the bottom of a 50 mm dish (Willco Glass Bottom Dish). Before measurements the sample was first rinsed and after covered with 4 ml of PBS 1×. The mechanical properties of the samples were studied using a BioScope Catalyst atomic force microscope (Bruker) coupled with and optical microscope (Leica DMI6000B) that enables, by phase contrast, to pinpoint the areas of interest. For each sample, from five to a maximum of 9 vessels (<100 μm diameter) were analyzed using the “Point and Shoot” method, collecting from 35 to 80 force-distance curves at just as many discrete points. The experiments of microindentation were performed in PBS using a probe with a Borosilicate Glass spherical tip (5 μm of diameter) and a cantilever with a nominal spring constant of 0.06 N/m (Novascan). Indentations were carried out using a velocity of 2 μm/s, in relative trigger mode and by setting the trigger threshold to 2 nN. The apparent Young's modulus was calculated using the NanoScope Analysis 1.50 software (Bruker), fitting the force curves to the Hertz spherical indentation model and using a Poisson's ratio of 0.4. To avoid large indentation, a minimum and a maximum Force Fit Boundary of 5% and 25% respectively of the whole force curve was taken into account for the fit.
# GLS1 = conditions: monocrotaline-exposed rats; for GLS activity: daily BAPN or daily i.p. verteporfin 25 mg/kg; for GLS1 activity in whole rat lung: daily i.p. 10 mg/kg, C968 from day 2 (prevention), CB839 from day 7 (reversal), vs vehicle
# Method: According to the manufacturer instructions (Glutaminase Microplate Assay Kit, Cohesion Biosciences), flash frozen rat lung tissue (0.1 g/sample) was homogenized in 1 mL of assay buffer on ice and centrifuged at 8000 g 4° C. for 10 min. Protein concentration was determined by Bradford assay. Samples, normalized to total protein (100 μg), were incubated with kit reagents for 1 hr at 37° C., and absorbances were measured at 420 nm.
# (§1) To induce PH, male Sprague-Dawley rats (10-14 week old) were injected intraperitoneally with 60 mg/kg monocrotaline (Sigma-Aldrich). After two days, rats underwent intraperitoneal injection daily with 25 mg/kg of verteporfin (Active Biochemicals Company, Ltd) solubilized in 5% dimethyl sulfoxide (DMSO, Sigma-Aldrich). Two days after the last injection on day 21 post-monocrotaline injection, right heart catheterization was performed followed by harvest of lung tissue and CD31+ cells for RNA or protein extraction, paraffin embedding, or cryopreservation with OCT (Sigma-Aldrich), as we described (2).
# (§2) To induce PH, male Sprague-Dawley rats (10-14 week old) were injected intraperitoneally with 60 mg/kg monocrotaline (Sigma-Aldrich). After two days, serial intraperitoneal injections were given daily of C968 (10 mg/kg, Sigma-Aldrich), and after seven days post-monocrotaline injection, serial intraperitoneal injections were given daily of CB839 (10 mg/kg, Selleck Chemicals). Two days after the last injection on day 21 post-monocrotaline injection, right heart catheterization was performed followed by harvest of lung tissue and CD31+ cells for RNA or protein extraction, paraffin embedding, or cryopreservation with OCT (Sigma-Aldrich), as we described (2).
# [2] = system: monocrotaline-exposed rats; test: Right heart catheterization and right ventricular weight (RVSP, Fulton index) in monocrotaline-exposed rats; conditions: for hemodynamic and histologic indices of PH: BAPN or verteporfin alone; for PAH severity as quantified by RVSP: daily BAPN or daily i.p. verteporfin 25 mg/kg; for right ventricular remodeling (Fulton index, RV/LV+S) / right ventricular systolic pressure (RVSP): daily i.p. 10 mg/kg, C968 from day 2, CB839 from day 7
# Method: Monocrotaline-treated rats: As we previously described (7, 8), male Sprague-Dawley rats (10-14 week old) were injected with 60 mg/kg monocrotaline at time 0; at 0-4 weeks post-exposure, right heart catheterization was performed followed by harvest of lung tissue for RNA extraction or paraffin embedding, as described below (section: Tissue harvest).
# After physiological measurements by direct right ventricular puncture, the pulmonary vessels were gently flushed with 1 cc of saline to remove the majority of blood cells, prior to harvesting cardiopulmonary tissue. The heart was removed, followed by dissection and weighing of the right ventricle (RV) and of the left ventricle+septum (LV+S). Organs were then harvested for histological preparation or flash frozen in liquid N2 for subsequent homogenization and extraction of RNA and/or protein. To further process lung tissue specifically, prior to excision, lungs were flushed with PBS at constant low pressure (approximately 10 mmHg) via right ventricular cannulation, followed by tracheal inflation of the left lung with 10% neutral-buffered formalin (Sigma-Aldrich) at a pressure of approximately 20 cm H2O. After excision and 16 hours of fixation in 10% neutral-buffered formalin at 25° C., lung tissues were paraffin embedded via an ethanol-xylene dehydration series, before being sliced into 5 μm sections (Hypercenter XP System and Embedding Center, Shandon).
# as §1, §2
# as §2, with “Finally, to investigate whether glutaminolysis itself is essential for promoting pulmonary vascular proliferation in PH, two separate pharmacologic inhibitors of GLS1 (C968 and CB-839) were administered in monocrotaline-exposed rats using either a disease prevention (FIG. 5A) or disease reversal (FIG. 5B) dosing protocol. To” for “To”, “C968 or CB-839” for “C968”, “C968 or CB-839” for “CB839”, “as” for “as we”, “previously (Bertero T, et al. Cell Reports. 2015; 13(5):1016-32).” for “(2).”
# [3] = Left ventricular function and systemic blood pressure in treated monocrotaline-exposed rats; conditions: for adverse effects on left ventricular cardiac function: daily BAPN or daily i.p. verteporfin 25 mg/kg
# [4] = daily BAPN or daily i.p. verteporfin 25 mg/kg
# [5] = daily i.p. 10 mg/kg C968 or CB-839, data not shown
Structure (SMILES),"pulmonary arteriolar (<100 μm diameter) stiffness, atomic force microscopy [1, 4]",GLS activity (GLS1),hemodynamic and histologic indices of PH [2],PAH severity as quantified by RVSP [2],adverse effects on left ventricular cardiac function ([3]; data not shown),GLS activity (GLS1; listed as verteporfin),PAH severity as quantified by RVSP ([2]; listed as verteporfin),right ventricular remodelling (Fulton index) ([2]; daily i.p. verteporfin 25 mg/kg),"adverse effects on systemic blood pressure ([3]; daily i.p. verteporfin 25 mg/kg, data not shown)",GLS1 activity in whole rat lung (GLS1),"right ventricular remodeling (Fulton index, RV/LV+S) [2]",right ventricular systolic pressure (RVSP) [2],"PAH severity, as quantified by vascular remodeling, arteriolar muscularization, RVSP and right ventricular hypertrophy ([2]; prevention experiment (C968) or reversal study)","adverse effects on left ventricular function [3, 5]","adverse effects on systemic blood pressure [3, 5]","pulmonary arteriolar (<100 μm diameter) stiffness, atomic force microscopy ([1]; daily CB839 vs vehicle)"
"N#CCCN [BAPN, β-aminoproprionitrile]",decreased,decreased,improvement,in a lower extent BAPN ameliorated,without adverse effects,,,,,,,,,,,
"C=Cc1c(C)c2cc3nc(cc4[nH]c(cc5nc(cc1[nH]2)C(C)=C5CCC(=O)O)c(CCC(=O)OC)c4C)[C@@]1(C)C3=CC=C(C(=O)OC)[C@H]1C(=O)OC [Verteporfin, 3-[(23S,24R)-14-ethenyl-5-(3-methoxy-3-oxopropyl)-22,23-bis(methoxycarbonyl)-4,10,15,24-tetramethyl-25,26,27,28-tetraazahexacyclo[16.6.1.1^3,6.1^8,11.1^13,16.0^19,24]octacosa-1,3,5,7,9,11(27),12,14,16,18(25),19,21-dodecaen-9-yl]propanoic acid]",decreased,decrease,robust improvement,ameliorated,without adverse effects,improved,reductions,reductions,without adverse effects,,,,,,,
"CN(C)c1ccc(C2Nc3ccc4ccccc4c3C3=C2C(=O)CC(C)(C)C3)cc1Br (centres unmarked) [C968, 5-(3-Bromo-4-(dimethylamino)phenyl)-2,2-dimethyl-2,3,5,6-tetrahydrobenzo[a]phenanthridin-4(1H)-one]",,,,,,,,,,decreased,significantly decreased,significantly decreased,ameliorated,without adverse effects,without adverse effects,
O=C(Cc1cccc(OC(F)(F)F)c1)Nc1ccc(CCCCc2nnc(NC(=O)Cc3ccccn3)s2)nn1 [CB839],,,,,,,,,,decreased,significantly decreased,significantly decreased,,without adverse effects,without adverse effects,decreased
